This note sets out measurements from patent publication US11986471B2, “Compounds and methods of use” (Tango Therapeutics, Inc., priority 2018, dated 2024).

pIC50: −log10 of the molar value.

The target in assay [1] is T1, PRMT5 (Homo sapiens, UniProt O14744).
T1 construct: purchased Viva (custom protein)
The assay is described as follows: PRMT5 IC50 assay in the presence of SAM as cofactor. The format is biochemical. The procedure, abridged: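 IC50 against PRMT5 determined with SAM as cofactor, with no cofactor, and with MTA as cofactor. Ki derived as IC50/1.5 for the SAM assay and IC50/13.5 for the MTA assay; SAM Ki to MTA Ki ratio also reported.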

Assay [2] has as its target T1, PRMT5. The assay is described as follows: PRMT5 IC50 assay with no cofactor. The format is biochemical. The procedure, abridged:
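For the SAM-containing format, dividing IC50 by 1.5 yields Ki; for the MTA-containing format the divisor is 13.5. A third format without cofactor gives IC50 alone.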

The target in assay [3] is T1, PRMT5. The assay is described as follows: PRMT5 IC50 assay in the presence of MTA as cofactor. The format is biochemical. To be noted: for pIC50: PRMT5, MTA as cofactor. The procedure, abridged: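 Ki conversion: SAM arm, Ki=IC50/1.5; MTA arm, Ki=IC50/13.5. No-cofactor arm reported as IC50 only. Selectivity expressed as Ki(SAM)/Ki(MTA).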
Assay [4] relates to HAP1 MTAP-intact. The assay is described as follows: SDMA in-cell western assay, HAP1 MTAP-intact cell line. The format is cell-based. The note with it: Homo sapiens. The procedure, abridged: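 Symmetric dimethylarginine (SDMA) levels were measured by in-cell western in an isogenic HAP1 pair, one expressing endogenous MTAP and one MTAP-null, and IC50 values were derived for each line. Compounds whose IC50 ratio between the lines is 3-fold or more are classed as MTAP-selective.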

In assay [5] the test system is HAP1 MTAP-deleted. The assay is described as follows: SDMA in-cell western assay, HAP1 MTAP-deleted cell line. The format is cell-based. The note with it: for pIC50: Homo sapiens, HAP1 MTAP-deleted cell line; for MTAP Intact/Deleted Ratio: IC50 ratio HAP1 MTAP-intact / HAP1 MTAP-deleted. In short, it runs like this: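 Symmetric dimethylarginine (SDMA) levels were measured by in-cell western in MTAP-null HAP1 cells, one half of an MTAP-isogenic pair whose partner line expresses endogenous MTAP. Compound potency is reported as IC50.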

[6] abbreviates: ratio between the Ki in the presence of SAM and the Ki in the presence of MTA.
Where [7] appears, read: ratio between Ki in the presence of SAM and Ki in the presence of MTA.

T1 sequence (O14744 whole entry): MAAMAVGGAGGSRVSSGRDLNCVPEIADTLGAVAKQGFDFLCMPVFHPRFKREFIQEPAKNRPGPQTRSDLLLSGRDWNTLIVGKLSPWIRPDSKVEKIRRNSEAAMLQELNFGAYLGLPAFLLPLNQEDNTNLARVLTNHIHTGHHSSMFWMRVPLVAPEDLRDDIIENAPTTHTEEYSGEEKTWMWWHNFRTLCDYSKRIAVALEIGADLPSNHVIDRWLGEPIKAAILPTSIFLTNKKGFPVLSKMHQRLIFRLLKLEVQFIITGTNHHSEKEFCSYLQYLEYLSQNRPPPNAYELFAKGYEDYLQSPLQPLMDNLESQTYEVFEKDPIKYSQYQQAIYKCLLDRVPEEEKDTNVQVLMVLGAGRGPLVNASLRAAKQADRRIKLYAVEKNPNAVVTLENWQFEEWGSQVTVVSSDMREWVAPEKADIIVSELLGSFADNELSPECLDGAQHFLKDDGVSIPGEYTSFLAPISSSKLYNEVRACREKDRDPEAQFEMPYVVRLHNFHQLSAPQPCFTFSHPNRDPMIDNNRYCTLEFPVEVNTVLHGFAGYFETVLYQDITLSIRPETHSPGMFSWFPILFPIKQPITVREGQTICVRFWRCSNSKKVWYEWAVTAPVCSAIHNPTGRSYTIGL
T1 sequence (Q9BQA1 whole entry partner): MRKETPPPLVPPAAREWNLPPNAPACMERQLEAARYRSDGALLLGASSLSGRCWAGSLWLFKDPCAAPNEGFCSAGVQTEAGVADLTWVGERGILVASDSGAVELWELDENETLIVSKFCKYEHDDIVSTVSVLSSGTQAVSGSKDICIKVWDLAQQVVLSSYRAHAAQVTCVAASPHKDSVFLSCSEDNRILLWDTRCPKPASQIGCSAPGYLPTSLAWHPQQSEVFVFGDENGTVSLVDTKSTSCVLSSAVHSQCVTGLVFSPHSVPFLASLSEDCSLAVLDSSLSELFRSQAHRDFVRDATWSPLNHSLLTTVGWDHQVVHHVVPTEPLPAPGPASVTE

As usually defined, the pIC50 is −log10 of the IC50, conventionally taken in molar units. Take `Cc1c(OCc2cnco2)ccc2c1CCN(C[C@@H](O)CNC(=O)c1ccnc(NC3CN(C(=O)CC(C)C)C3)c1)C2` [Compound 522, (S)—N-(2-hydroxy-3-(5-methyl-6-(oxazol-5-ylmethoxy)-3N-dihydroisoquinolin-2(1H)-yl)propyl)-2-((1-(3-methylbutanoyl)azetidin-3-yl)amino)isonicotinamide]: the negative logarithm of the IC50 (pIC50) in assay [1] was 6.30 to 7.30; in assay [2], at most 5.30; in assay [3], 6.30 to 7.30; in assay [4] it was at most 5.00; in assay [5], at most 5.00. Also, the “SAM/MTA Ratio” value in assay [3] (setting [6]) is “A (a Ki ratio greater than or equal to 10 fold between the Ki in the presence of SAM and the Ki in the presence of MTA)”. In addition, the “MTAP Intact/Deleted Ratio” value in assay [5] is “C* (an IC50 ratio of less than 3 fold between the IC50 in the HAP1 MTAP-intact cell line and the HAP1 MTAP-deleted cell line)”.
Consider `CN1CCN(c2cc(C(=O)NC[C@H](O)CN3CCc4c(ccc(OCc5cnco5)c4Cl)C3)cc(NC3CCC3)n2)CC1` [Compound 419, (S)—N-(3-(5-chloro-6-(oxazol-5-ylmethoxy)-3N-dihydroisoquinolin-2(1H)-yl)-2-hydroxypropyl)-2-(cyclobutylamino)-6-(4-methylpiperazin-1-yl)isonicotinamide], for which the pIC50 is 6.30 to 7.30 in assay [1]; 5.30 to 6.30 in assay [2] (read-out: No Co-factor IC50); 6.30 to 7.30 in assay [3]; at most 5.00 in assay [4]; at most 5.00 in assay [5]. The “SAM/MTA Ratio” value in assay [3] (setting [7]) was “A (a Ki ratio greater than or equal to 10 fold between the Ki in the presence of SAM and the Ki in the presence of MTA)”. Besides, in assay [5], the “MTAP Intact/Deleted Ratio” value was “C* (an IC50 ratio of less than 3 fold between the IC50 in the HAP1 MTAP-intact cell line and the HAP1 MTAP-deleted cell line)”.
Turning to `CC(C)Cc1cc(C(=O)NC[C@H](O)CN2CCc3c(ccc(OCc4cnco4)c3Cl)C2)cc(NC2CCC2)n1` [Compound 287], the negative logarithm of the IC50 (pIC50) is 5.30 to 6.30 in assay [1]; at most 5.30 in assay [2] (read-out: No Co-factor IC50); 5.30 to 6.30 in assay [3]; at most 5.00 in assay [4]; at most 5.00 in assay [5]. In addition, the “SAM/MTA Ratio” value in assay [3] (setting [7]) was “A (a Ki ratio greater than or equal to 10 fold between the Ki in the presence of SAM and the Ki in the presence of MTA)”. In addition, the “MTAP Intact/Deleted Ratio” value in assay [5] was “C* (an IC50 ratio of less than 3 fold between the IC50 in the HAP1 MTAP-intact cell line and the HAP1 MTAP-deleted cell line)”.
`Cc1ncoc1COc1ccc2c(c1C)CCN(C[C@@H](O)CNC(=O)c1ccnc(NC3CCCC3)c1)C2` [Compound 418, 2-(cyclopentylamino)-N-[(2S)-2-hydroxy-3-{5-methyl-6-[(4-methyl-1,3-oxazol-5-yl)methoxy]-1,2,3,4-tetrahydroisoquinolin-2-yl}propyl]pyridine-4-carboxamide]: the negative logarithm of the IC50 (pIC50) in assay [1] was 6.30 to 7.30; in assay [2] (read-out: No Co-factor IC50), at most 5.30; in assay [3], 6.30 to 7.30; in assay [4], at most 5.00; in assay [5] it was 5.00 to 6.00. Also, the “SAM/MTA Ratio” value in assay [3] (setting [7]) was “A (a Ki ratio greater than or equal to 10 fold between the Ki in the presence of SAM and the Ki in the presence of MTA)”. For the same molecule, the “MTAP Intact/Deleted Ratio” value in assay [5] was “C* (an IC50 ratio of less than 3 fold between the IC50 in the HAP1 MTAP-intact cell line and the HAP1 MTAP-deleted cell line)”.
For the molecule `CC(=O)N1CCC(Nc2cc(C(=O)NC[C@H](O)CN3CCc4c(ccc(OCc5cnco5)c4Cl)C3)ccn2)CC1` [Compound 429], the negative-log IC50 (pIC50) in assay [1] is 6.30 to 7.30; in assay [2], 5.30 to 6.30; in assay [3], 6.30 to 7.30; in assay [4], at most 5.00; in assay [5] it was 5.00 to 6.00. For the same molecule, in assay [3] (setting [6]), the “SAM/MTA Ratio” value was “A (a Ki ratio greater than or equal to 10 fold between the Ki in the presence of SAM and the Ki in the presence of MTA)”. The “MTAP Intact/Deleted Ratio” value in assay [5] was “B* (an IC50 ratio greater than or equal to 3 fold but lower than 10 fold between the IC50 in the HAP1 MTAP-intact cell line and the HAP1 MTAP-deleted cell line)”.
As for `CC(=O)N1CCC(Nc2cc(C(=O)NC[C@H](O)CN3CCc4c(ccc(OCc5conc5C)c4Cl)C3)ncn2)CC1` [Compound 251, (S)-6-((1-acetylpiperidin-4-yl)amino)-N-(3-(5-chloro-6-((3-methylisoxazol-4-yl)methoxy)-3N-dihydroisoquinolin-2(1H)-yl)-2-hydroxypropyl)pyrimidine-4-carboxamide], the pIC50 in assay [1] was 5.30 to 6.30; in assay [2] (read-out: No Co-factor IC50) it was at most 5.30; in assay [3], 5.30 to 6.30; in assay [4], at most 5.00; in assay [5], at most 5.00. Further, the “MTAP Intact/Deleted Ratio” value in assay [5] is “C* (an IC50 ratio of less than 3 fold between the IC50 in the HAP1 MTAP-intact cell line and the HAP1 MTAP-deleted cell line)”.
For the molecule `CC(=O)N1CCC(Nc2cc(C(=O)NC[C@H](O)CN3CCc4cc(OCc5cnnn5C)ccc4C3)ncn2)CC1` [Compound 250, (S)-6-((1-acetylpiperidin-4-yl)amino)-N-(2-hydroxy-3-(6-((1-methyl-1H-1,2,3-triazol-5-yl)methoxy)-3,4-dihydroisoquinolin-2(1H)-yl)propyl)pyrimidine-4-carboxamide], the pIC50 in assay [1] was 5.30 to 6.30; in assay [2] (read-out: No Co-factor IC50), at most 5.30; in assay [3], 5.30 to 6.30; in assay [4], at most 5.00; in assay [5], at most 5.00. Also, the “SAM/MTA Ratio” value in assay [3] (setting [7]) was “A (a Ki ratio greater than or equal to 10 fold between the Ki in the presence of SAM and the Ki in the presence of MTA)”. For the same molecule, the “MTAP Intact/Deleted Ratio” value in assay [5] was “C* (an IC50 ratio of less than 3 fold between the IC50 in the HAP1 MTAP-intact cell line and the HAP1 MTAP-deleted cell line)”.
As to `O=C(NC[C@H](O)CN1CCc2cc(OCc3cnco3)ccc2C1)c1cc(NC2CCC2)nc(N2CCCCC2)c1` [Compound 320, (S)-2-(cyclobutylamino)-N-(2-hydroxy-3-(6-(oxazol-5-ylmethoxy)-3,4-dihydroisoquinolin-2(1H)-yl)propyl)-6-(piperidin-1-yl)isonicotinamide], the pIC50 in assay [1] was 5.30 to 6.30; in assay [2] (read-out: No Co-factor IC50), 5.30 to 6.30; in assay [3], 5.30 to 6.30; in assay [4], 5.00 to 6.00; in assay [5], 5.00 to 6.00. The “MTAP Intact/Deleted Ratio” value in assay [5] is “C* (an IC50 ratio of less than 3 fold between the IC50 in the HAP1 MTAP-intact cell line and the HAP1 MTAP-deleted cell line)”.
For `Cc1ncoc1COc1ccc2c(c1Br)CCN(C[C@@H](O)CNC(=O)c1cccc(NC3COC3)c1)C2` [Compound 381, (S)—N-(3-(5-bromo-6-((4-methyloxazol-5-yl)methoxy)-3,4-dihydroisoquinolin-2(1H)-yl)-2-hydroxypropyl)-3-(oxetan-3-ylamino)benzamide], the pIC50 in assay [1] is 5.30 to 6.30; in assay [2] (read-out: No Co-factor IC50) it was at most 5.30; in assay [3], 5.30 to 6.30; in assay [4], at most 5.00; in assay [5], at most 5.00. In addition, the “SAM/MTA Ratio” value in assay [3] (setting [7]) was “A (a Ki ratio greater than or equal to 10 fold between the Ki in the presence of SAM and the Ki in the presence of MTA)”. Besides, the “MTAP Intact/Deleted Ratio” value in assay [5] is “C* (an IC50 ratio of less than 3 fold between the IC50 in the HAP1 MTAP-intact cell line and the HAP1 MTAP-deleted cell line)”.
In the case of `CC(=O)N1CCC(Nc2cc(C(=O)NC[C@H](O)CN3CCc4cc(OCc5ocnc5C)ccc4C3)cc(N3CCCCC3)c2)CC1` (single isomer, unassigned) [Compound 631], the negative logarithm of the IC50 (pIC50) was 6.30 to 7.30 in assay [1]; at most 5.30 in assay [2] (read-out: No Co-factor IC50); 6.30 to 7.30 in assay [3]; 5.00 to 6.00 in assay [4]; over 6.00 in assay [5]. In addition, the “SAM/MTA Ratio” value in assay [3] (setting [7]) was “A (a Ki ratio greater than or equal to 10 fold between the Ki in the presence of SAM and the Ki in the presence of MTA)”. Also, the “MTAP Intact/Deleted Ratio” value in assay [5] is “B* (an IC50 ratio greater than or equal to 3 fold but lower than 10 fold between the IC50 in the HAP1 MTAP-intact cell line and the HAP1 MTAP-deleted cell line)”.
On to `CC(=O)N1CCC(Nc2cc(C(=O)NC[C@H](O)CN3CCc4cc(OCc5ocnc5C)ccc4C3)nc(N3CCCCC3)n2)CC1` [Compound 647], for which the pIC50 in assay [1] was 6.30 to 7.30; in assay [2] (read-out: No Co-factor IC50), 6.30 to 7.30; in assay [3] it was over 7.30; in assay [4] it was over 6.00; in assay [5], over 6.00. For the same molecule, the “SAM/MTA Ratio” value in assay [3] (setting [7]) was “A (a Ki ratio greater than or equal to 10 fold between the Ki in the presence of SAM and the Ki in the presence of MTA)”. In addition, in assay [5], the “MTAP Intact/Deleted Ratio” value is “B* (an IC50 ratio greater than or equal to 3 fold but lower than 10 fold between the IC50 in the HAP1 MTAP-intact cell line and the HAP1 MTAP-deleted cell line)”.
For `Cc1ncoc1COc1ccc2c(c1)CCN(C[C@@H](O)CNC(=O)c1cc(NC3CCC3)nc(OCCN(C)C)c1)C2` [Compound 406, 2-(cyclobutylamino)-6-[2-(dimethylamino)ethoxy]-N-[(2S)-2-hydroxy-3-{6-[(4-methyl-1,3-oxazol-5-yl)methoxy]-1,2,3,4-tetrahydroisoquinolin-2-yl}propyl]pyridine-4-carboxamide], the pIC50 in assay [1] is 6.30 to 7.30; in assay [2] (read-out: No Co-factor IC50), 5.30 to 6.30; in assay [3], over 7.30; in assay [4] it was over 6.00; in assay [5], over 6.00. Moreover, in assay [3] (setting [7]), the “SAM/MTA Ratio” value was “A (a Ki ratio greater than or equal to 10 fold between the Ki in the presence of SAM and the Ki in the presence of MTA)”. Further, the “MTAP Intact/Deleted Ratio” value in assay [5] is “B* (an IC50 ratio greater than or equal to 3 fold but lower than 10 fold between the IC50 in the HAP1 MTAP-intact cell line and the HAP1 MTAP-deleted cell line)”.
